The values that follow come from US7947695B2, “5-membered annelated heterocyclic pyrimidines as kinase inhibitors” (Janssen Pharmaceutica NV, priority 2005, dated 2011).

The structures appear in SMILES notation.

Sequence of AURORA B (Q96GD4 whole entry): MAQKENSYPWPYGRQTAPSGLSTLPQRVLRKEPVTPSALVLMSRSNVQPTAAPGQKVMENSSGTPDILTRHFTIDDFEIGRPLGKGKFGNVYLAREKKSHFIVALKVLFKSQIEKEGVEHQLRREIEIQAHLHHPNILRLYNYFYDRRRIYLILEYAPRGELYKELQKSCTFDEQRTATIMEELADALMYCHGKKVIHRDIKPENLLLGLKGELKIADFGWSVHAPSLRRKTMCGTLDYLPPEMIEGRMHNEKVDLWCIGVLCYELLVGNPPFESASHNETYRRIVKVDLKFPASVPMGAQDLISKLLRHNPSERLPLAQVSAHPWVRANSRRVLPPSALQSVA

One assay concerns the target T1, AURORA A (Homo sapiens, UniProt O14965).
T1 sequence (O14965 1-403): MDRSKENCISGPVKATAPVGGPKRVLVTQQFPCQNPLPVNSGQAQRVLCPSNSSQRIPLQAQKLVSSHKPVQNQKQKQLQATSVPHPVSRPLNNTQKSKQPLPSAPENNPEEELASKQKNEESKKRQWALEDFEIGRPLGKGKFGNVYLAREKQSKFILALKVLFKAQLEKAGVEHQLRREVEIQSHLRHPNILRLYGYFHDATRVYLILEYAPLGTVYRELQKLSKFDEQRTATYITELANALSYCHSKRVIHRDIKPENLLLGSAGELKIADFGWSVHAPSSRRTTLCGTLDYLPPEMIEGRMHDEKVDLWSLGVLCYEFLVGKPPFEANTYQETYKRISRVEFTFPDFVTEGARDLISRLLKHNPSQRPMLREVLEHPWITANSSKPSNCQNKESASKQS
Put plainly: In vitro filtration assay for AURORA A inhibitory activity. Format: biochemical. Particulars: Kemptide substrate, 1 μM unlabeled ATP, 25° C. 40 minutes, read-out: Aurora A see C.2 (pIC50) (converted). The protocol: Compounds of the present invention were tested in an in vitro filtration assay assessing AURORA A activity by means of its substrate-phosphorylation activity using [^33P]-ATP as phosphor donor. The radioactive phosphorylated substrate is then captured on filtermats and the incorporated [^33P] quantitated using a phosphorage storage screen.
The Aurora-A kinase reaction is performed at 25° C. for 40 minutes in a 96-well microtiterplate. The 25 μl reaction volume contains 12 mM MOPS pH 7, 0.4 mM EDTA, 0.002% Brij35, 1% glycerol, 0.02% beta-mercapto-ethanol, 0.2 mg/ml BSA, 1 μM unlabeled ATP, […] [^33P]-ATP, 200 μM Kemptide, 3 ng Aurora A/well and 0.2% compound in 100% DMSO.
(§1) The reaction is stopped by adding 5 μl of a 3% phosphoric acid solution. 10 μl of the reaction mixture is then spotted onto a Filtermat P30 filter (Wallac) and washed 3 times for 5 min. in 75 mM phosphoric acid and 1 time for 5 min. in methanol prior to drying and quantification on the Typhoon (Amersham) using a phosphorage storage screen.
(§2) For each experiment, controls (containing enzyme (complex) and DMSO without compound), a blank incubation (containing DMSO but no enzyme (complex) or compound) and samples (containing enzyme (complex) and compound dissolved in DMSO) were run in parallel. All compounds tested were dissolved and eventually further diluted in DMSO. […] In each test, the blank value was subtracted from both the control and the sample values. The control sample represented maximal enzyme activity. For each sample, the amount of cpm was expressed as a percentage of the mean cpm value of the controls. When appropriate, IC50-values (concentration of the drug, needed to reduce the enzyme activity to 50% of the control) were computed using linear interpolation between the experimental points just above and below the 50% level. Herein the effects of test compounds are expressed as pIC50 (the negative log value of the IC50-value).
Consider `CC(C)(C)OC(=O)N(c1ccc(CN2CCN(CCO)CC2)cc1)c1ncc2cnn(C3CCOCC3)c2n1` [compound 55], for which the IC50 was more than 10000 nM.

As to `O=C(c1ccc(Nc2ncc3cnn(C4CCCCC4)c3n2)cc1)N1CCOCC1` [compound 56], the IC50 is 126 nM.

In the case of `CN1CCN(C(=O)c2ccc(Nc3ncc4cnn([C@H]5C[C@@H]6CC[C@H]5C6)c4n3)cc2)CC1` [compound 57], the IC50 was 100 nM.

Regarding `CC(C)(O)CN1CCN(C(=O)c2ccc(Nc3ncc4cnn(C5CCCCC5)c4n3)cc2)CC1` [compound 58], the IC50 is 126 nM.

As for `c1cc(Nc2ncc3cnn(C4CCCCC4)c3n2)ccc1CNC1CCNCC1` [compound 59], the IC50 was 794 nM.

`CC(C)(C)OC(=O)N1CCC(N(Cc2ccc(Nc3ncc4cnn(C5CCCCC5)c4n3)cc2)C(=O)OC(C)(C)C)CC1` [compound 61]: the IC50 was 1260 nM.

As for `CN1CCC(N(Cc2ccc(Nc3ncc4cnn(C5CCCCC5)c4n3)cc2)C(=O)OC(C)(C)C)CC1` [compound 62], the IC50 is 158 nM.

As for `CC(C)(O)CN1CCC(NCc2ccc(Nc3ncc4cnn(C5CCCCC5)c4n3)cc2)CC1` [compound 63], the IC50 is 1000 nM.

Take `CC(C)(C)OC(=O)N(c1ccc(CNCCN2CCOCC2)cc1)c1ncc2cnn([C@H]3C[C@@H]4CC[C@H]3C4)c2n1` [compound 64]: the IC50 is more than 10000 nM.

For `c1cc(Nc2ncc3cnn([C@H]4C[C@@H]5CC[C@H]4C5)c3n2)ccc1CNCCN1CCOCC1` [compound 65], the IC50 is 501 nM.

With `c1cc(Nc2ncc3cnn(C4CCCCC4)c3n2)ccc1CNC1CCOCC1` [compound 67], the IC50 is 1580 nM.

Regarding `CN1CCC(NCc2ccc(N(C(=O)OC(C)(C)C)c3ncc4cnn([C@H]5C[C@@H]6CC[C@H]5C6)c4n3)cc2)CC1` [compound 68], the IC50 was 6310 nM.

On to `CN1CCC(NCc2ccc(Nc3ncc4cnn([C@H]5C[C@@H]6CC[C@H]5C6)c4n3)cc2)CC1` [compound 69], for which the IC50 was 631 nM.

In the case of `CC(C)(C)OC(=O)N(c1ccc(CNCCN2CCOCC2)cc1)c1ncc2cnn(C3CCOCC3)c2n1` [compound 70], the IC50 is more than 10000 nM.

As for `c1cc(Nc2ncc3cnn(C4CCOCC4)c3n2)ccc1CNCCN1CCOCC1` [compound 71], the IC50 was 5010 nM.

A further assay has as its target AURORA B (Homo sapiens, UniProt Q96GD4). The assay is described as follows: In vitro filtration assay for AURORA B inhibitory activity. Format: biochemical. The settings on record: peptide (C(LRRWSLG)×4), 1 μM unlabeled ATP, 25° C. 40 minutes, read-out: Aurora B see C.3 (pIC50) (converted). The protocol:
Compounds of the present invention were tested in an in vitro filtration assay assessing AURORA B activity by means of its substrate-phosphorylation activity using [^33P]-ATP as phosphor donor. The radioactive phosphorylated substrate is then captured on filtermats and the incorporated [^33P] quantitated using a phosphorage storage screen.
The Aurora-B kinase reaction is performed at 25° C. for 40 minutes in a 96-well microtiterplate. The 25 μl reaction volume contains 60 mM Hepes pH 7.5, 3 mM MgCl2, 3 mM MnCl2, 3 μM Na3VO4, 50 μg/ml PEG20000, 1 μM unlabeled ATP, 1 mM DTT, 0.2 μCi AT^33P, 0.25 μg/well peptide (C(LRRWSLG)×4),100 ng Aurora-B/well and 0.2% compound in 100% DMSO. The reaction is stopped by adding 5 μl of a 3% phosphoric acid solution. 10 μl of the reaction mixture is then spotted onto a Filtermat P30 filter (Wallac) and washed 3 times for 5 min. in 75 mM phosphoric acid and 1 time for 5 min. in methanol prior to drying and quantification on the Typhoon (Amersham) using a phosphorage storage screen.
as §2
In the case of `CC(C)(C)OC(=O)N(c1ccc(CN2CCN(CCO)CC2)cc1)c1ncc2cnn(C3CCOCC3)c2n1` [compound 55], the IC50 is more than 10000 nM.

On to `O=C(c1ccc(Nc2ncc3cnn(C4CCCCC4)c3n2)cc1)N1CCOCC1` [compound 56], for which the IC50 is 3160 nM.

Consider `CN1CCN(C(=O)c2ccc(Nc3ncc4cnn([C@H]5C[C@@H]6CC[C@H]5C6)c4n3)cc2)CC1` [compound 57], for which the IC50 is 7940 nM.

Turning to `CC(C)(O)CN1CCN(C(=O)c2ccc(Nc3ncc4cnn(C5CCCCC5)c4n3)cc2)CC1` [compound 58], the IC50 is 1260 nM.

With `c1cc(Nc2ncc3cnn(C4CCCCC4)c3n2)ccc1CNC1CCNCC1` [compound 59], the IC50 is more than 10000 nM.

For `CC(C)(C)OC(=O)N1CCC(N(Cc2ccc(Nc3ncc4cnn(C5CCCCC5)c4n3)cc2)C(=O)OC(C)(C)C)CC1` [compound 61], the IC50 is more than 10000 nM.

For the compound `CN1CCC(N(Cc2ccc(Nc3ncc4cnn(C5CCCCC5)c4n3)cc2)C(=O)OC(C)(C)C)CC1` [compound 62], the IC50 is 6310 nM.

In the case of `CC(C)(O)CN1CCC(NCc2ccc(Nc3ncc4cnn(C5CCCCC5)c4n3)cc2)CC1` [compound 63], the IC50 was 2510 nM.

For `CC(C)(C)OC(=O)N(c1ccc(CNCCN2CCOCC2)cc1)c1ncc2cnn([C@H]3C[C@@H]4CC[C@H]3C4)c2n1` [compound 64], the IC50 was more than 10000 nM.

With `c1cc(Nc2ncc3cnn([C@H]4C[C@@H]5CC[C@H]4C5)c3n2)ccc1CNCCN1CCOCC1` [compound 65], the IC50 is 501 nM.

For the compound `c1cc(Nc2ncc3cnn(C4CCCCC4)c3n2)ccc1CNC1CCOCC1` [compound 67], the IC50 was 1000 nM.

Turning to `CN1CCC(NCc2ccc(N(C(=O)OC(C)(C)C)c3ncc4cnn([C@H]5C[C@@H]6CC[C@H]5C6)c4n3)cc2)CC1` [compound 68], the IC50 was 7940 nM.

As to `CN1CCC(NCc2ccc(Nc3ncc4cnn([C@H]5C[C@@H]6CC[C@H]5C6)c4n3)cc2)CC1` [compound 69], the IC50 was 1000 nM.

On to `CC(C)(C)OC(=O)N(c1ccc(CNCCN2CCOCC2)cc1)c1ncc2cnn(C3CCOCC3)c2n1` [compound 70], for which the IC50 is more than 10000 nM.

As to `c1cc(Nc2ncc3cnn(C4CCOCC4)c3n2)ccc1CNCCN1CCOCC1` [compound 71], the IC50 is more than 10000 nM.

For the next assay, the target named is CDK4/cyclinD1 (Homo sapiens, UniProt P11802). Put plainly: In vitro filtration assay for CDK4 inhibitory activity (pRb phosphorylation, [33P]-ATP). The assay is classed as biochemical. Particulars: GST-pRb substrate, 1 μM unlabeled ATP, 25° C. 45 minutes, read-out: cdk4 filter (pIC50) (converted). The protocol: Compounds of the present invention were tested in an in vitro filtration assay assessing CDK4 activity by means of its pRb-phosphorylation activity using [^33P]-ATP as phosphor donor. The radioactive phosphorylated pRb is then captured on filtermats and the incorporated [^33P] quantitated using a phosphorage storage screen.
Sequence of CDK4/cyclinD1 (P11802 whole entry): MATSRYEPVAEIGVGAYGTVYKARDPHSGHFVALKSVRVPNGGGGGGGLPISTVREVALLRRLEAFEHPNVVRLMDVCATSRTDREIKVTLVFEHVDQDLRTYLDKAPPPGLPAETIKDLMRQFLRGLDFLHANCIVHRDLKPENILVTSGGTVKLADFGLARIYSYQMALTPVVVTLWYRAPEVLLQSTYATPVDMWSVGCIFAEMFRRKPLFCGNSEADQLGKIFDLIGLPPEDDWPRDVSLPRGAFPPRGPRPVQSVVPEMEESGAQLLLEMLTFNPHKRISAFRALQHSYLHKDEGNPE
Sequence of CDK4/cyclinD1 (P24385 whole entry partner): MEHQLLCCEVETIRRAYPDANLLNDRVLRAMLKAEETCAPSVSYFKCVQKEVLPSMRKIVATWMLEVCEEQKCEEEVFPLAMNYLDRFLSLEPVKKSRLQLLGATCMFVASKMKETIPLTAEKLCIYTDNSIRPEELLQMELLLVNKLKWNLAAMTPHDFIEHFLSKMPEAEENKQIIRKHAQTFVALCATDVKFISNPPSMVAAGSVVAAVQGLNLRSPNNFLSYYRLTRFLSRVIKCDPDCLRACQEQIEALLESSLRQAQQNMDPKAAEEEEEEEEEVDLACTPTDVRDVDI
The CDK4 kinase reaction is performed at 25° C. for 45 minutes in a 96-well microtiterplate. The 25 μl reaction volume contains 50 mM Hepes pH 7.5, 10 mM NaF, 10 mM MgCl2, 1 mM Na3VO4, 1 μM unlabeled ATP, 1 mM DTT, 0.5 μCi AT^33P, 0.76 μg/well GST-pRb, 50 ng CDK4/cyclinD1/well and 0.2% compound in 100% DMSO.
as §1, §2
Consider `CC(C)(C)OC(=O)N(c1ccc(CN2CCN(CCO)CC2)cc1)c1ncc2cnn(C3CCOCC3)c2n1` [compound 55], for which the IC50 was more than 10000 nM.

For `O=C(c1ccc(Nc2ncc3cnn(C4CCCCC4)c3n2)cc1)N1CCOCC1` [compound 56], the IC50 was 25.1 nM.

As for `CN1CCN(C(=O)c2ccc(Nc3ncc4cnn([C@H]5C[C@@H]6CC[C@H]5C6)c4n3)cc2)CC1` [compound 57], the IC50 is 100 nM.

Take `CC(C)(O)CN1CCN(C(=O)c2ccc(Nc3ncc4cnn(C5CCCCC5)c4n3)cc2)CC1` [compound 58]: the IC50 is 631 nM.

On to `c1cc(Nc2ncc3cnn(C4CCCCC4)c3n2)ccc1CNC1CCNCC1` [compound 59], for which the IC50 is 15.8 nM.

As to `CC(C)(C)OC(=O)N1CCC(N(Cc2ccc(Nc3ncc4cnn(C5CCCCC5)c4n3)cc2)C(=O)OC(C)(C)C)CC1` [compound 61], the IC50 was more than 10000 nM.

As to `CN1CCC(N(Cc2ccc(Nc3ncc4cnn(C5CCCCC5)c4n3)cc2)C(=O)OC(C)(C)C)CC1` [compound 62], the IC50 is 25.1 nM.

Take `CC(C)(O)CN1CCC(NCc2ccc(Nc3ncc4cnn(C5CCCCC5)c4n3)cc2)CC1` [compound 63]: the IC50 is 25.1 nM.

Regarding `CC(C)(C)OC(=O)N(c1ccc(CNCCN2CCOCC2)cc1)c1ncc2cnn([C@H]3C[C@@H]4CC[C@H]3C4)c2n1` [compound 64], the IC50 was 6310 nM.

With `c1cc(Nc2ncc3cnn([C@H]4C[C@@H]5CC[C@H]4C5)c3n2)ccc1CNCCN1CCOCC1` [compound 65], the IC50 was 200 nM.

As to `c1cc(Nc2ncc3cnn(C4CCCCC4)c3n2)ccc1CNC1CCOCC1` [compound 67], the IC50 is 251 nM.

In the case of `CN1CCC(NCc2ccc(N(C(=O)OC(C)(C)C)c3ncc4cnn([C@H]5C[C@@H]6CC[C@H]5C6)c4n3)cc2)CC1` [compound 68], the IC50 was 1000 nM.

Take `CN1CCC(NCc2ccc(Nc3ncc4cnn([C@H]5C[C@@H]6CC[C@H]5C6)c4n3)cc2)CC1` [compound 69]: the IC50 was 25.1 nM.

Regarding `CC(C)(C)OC(=O)N(c1ccc(CNCCN2CCOCC2)cc1)c1ncc2cnn(C3CCOCC3)c2n1` [compound 70], the IC50 was more than 10000 nM.

Take `c1cc(Nc2ncc3cnn(C4CCOCC4)c3n2)ccc1CNCCN1CCOCC1` [compound 71]: the IC50 was 2510 nM.
